We go through two compounds from patent US20120202693A1 (DOW AGROSCIENCES LLC, priority 2011, published 2012).

“And” between values parts separate entries of the source, which are not always exact repeats. Equal values may be shown once.

Holding throughout (assay type): in vivo
Experiment [1] has as its system Chinese sprangletop (Leptochloa chinensis, LEFCH). The experiment is described as follows: Postemergence herbicidal activity of mixtures in the greenhouse, visual weed control. Particulars: 16 days after application. On the procedure:
(§1) Evaluation of Postemergence Herbicidal Activity of Mixtures in the Greenhouse
(§2) Seeds of the desired test plant species were planted in 80% mineral soil/20% grit planting mixture, which typically has a pH of 7.2 and an organic matter content of about 2.9 percent, in plastic pots with a surface area of 128 square centimeters (cm^2). The growing medium was steam sterilized. The plants were grown for 7-19 days in a greenhouse with an approximate 14-hour (h) photoperiod which was maintained at about 29° C. during the day and 26° C. during the night. Nutrients and water were added on a regular basis and supplemental lighting was provided with overhead metal halide 1000-Watt lamps as necessary. The plants were treated with postemergence foliar applications when they reached the second to fourth true leaf stage. All treatments were applied using a randomized complete block trial design, with 4 replications per treatment.
(§3) Compound requirements are based upon a 12 mL application volume at a rate of 187 liters per hectare (L/ha). Spray solutions of the mixtures were prepared by adding the stock solutions to the appropriate amount of dilution solution to form 12 mL spray solution with active ingredients in single and two way combinations. Formulated compounds were applied to the plant material with an overhead Mandel track sprayer equipped with 8002E nozzles calibrated to deliver 187 L/ha at a spray height of 18 inches ([…] (cm)) above average plant canopy. The weed spectrum included broadleaf signalgrass (Brachiaria platyphylla, BRAPP), yellow nutsedge (Cyperus esculentus, CYPES), barnyardgrass (Echinochloa crus-galli, ECHCG), momingglory (Ipomoea, hederacea, IPOHE), and Chinese sprangletop (Leptochloa chinensis, LEFCH).
(§4) The treated plants and control plants were placed in a greenhouse as described above and watered by sub-irrigation to prevent wash-off of the test compounds. Treatments were rated at 16 days after application (DAA) as compared to the untreated control plants. Visual weed control was scored on a scale of 0 to 100 percent where 0 corresponds to no injury and 100 corresponds to complete kill.
(§5) Colby's equation was used to determine the herbicidal effects expected from the mixtures (Colby, S. R. Calculation of the synergistic and antagonistic response of herbicide combinations. Weeds 1967 15, 20-22).
(§6) The following equation was used to calculate the expected activity of mixtures containing two active ingredients, A and B:
(§7) A=observed efficacy of active ingredient A at the same concentration as used in the mixture;
(§8) B=observed efficacy of active ingredient B at the same concentration as used in the mixture.

The subject of experiment [2] is broadleaf signalgrass (Brachiaria platyphylla, BRAPP). The description is as above. The settings on record: 16 days after application. On the procedure: as §1, §2, §3, §4, §5, §6, §7, §8
For experiment [3], the system named is morningglory (Ipomoea hederacea, IPOHE). The experiment is described as above. Particulars: 16 days after application. On the procedure: as §1, §2, §3, §4, §5, §6, §7, §8
The subject of experiment [4] is annual bluegrass (Poa annua, POAAN). As to the kind of experiment: Postemergence herbicidal activity of mixtures under field conditions (vines), visual weed control. The settings on record: 27 days after application. On the procedure:
(§9) Evaluation of Postemergence Herbicidal Activity of Mixtures under Field Conditions Methodology
(§10) Trial site was located in commercially grown vines of European grape (Vitis vinifera). The trial was conducted using normal research methodology. Trial plots were between 2 m wide by […] long. All treatments were applied using a randomized complete block trial design with 3 replications per treatment. The trial sites had naturally occurring populations of weeds. The weed spectrum included, but was not limited to, ryegrass (Lolium spp, LOLSS), scented mayweed (Matricaria chamomilla, MATCH), and annual bluegrass (Poa annua, POAAN).
(§11) Treatments consisted of tank mixes of an oil dispersion of penoxsulam and commercially available formulation of glyphosate applied in water. The application volume was 250 liters per hectare (L/ha). Application was made using a precision gas hand sprayer at 250 kPA pressure using a 2 m boom with flat fan (80015VS) nozzles to broadcast the treatments to the weeds and to the soil.
(§12) […] Ratings were based on Percent (%) Visual weed control, where 0 corresponds to no control and 100 corresponds to complete control.
as §5, §6, §7, §8

For experiment [5], the system named is ryegrass (Lolium spp, LOLSS). The experiment is described as above. Particulars: 61 days after application. The procedure: as §9, §10, §11, §12, §5, §6, §7, §8
In experiment [6] the test system is scented mayweed (Matricaria chamomilla, MATCH). The description is as above. Particulars: 27 days after application. The procedure: as §9, §10, §11, §12, §5, §6, §7, §8
The test system of experiment [7] is barnyardgrass (Echinochloa crus-galli, ECHCG). The experiment is described as follows: Postemergence herbicidal activity of mixtures in the greenhouse, visual weed control. Particulars: 16 days after application. The procedure:
as §1, §2, §3, §4, §5, §6, §7, §8

Experiment [8] relates to yellow nutsedge (Cyperus esculentus, CYPES). The description is as above. Particulars: 16 days after application. On the procedure: as §1, §2, §3, §4, §5, §6, §7, §8
Setting [9] is: Glyphosate (IPA salt) 210 grams ai/ha alone.
Setting [10] is: Glyphosate 720 grams ai/ha alone.
Setting [11] is: Penoxsulam 1.3 grams ai/ha alone.
The mark [12] stands for this setting: Penoxsulam 2.5 grams ai/ha alone.
[13] abbreviates: Penoxsulam 10 grams ai/ha alone.
Setting [14] is: Penoxsulam 20 grams ai/ha alone.

As for `O=C(O)CNCP(=O)(O)O` [Glyphosate, N-(phosphonomethyl)glycine], the “LEFCH Obs (Observed control)” value in experiment [1] (Glyphosate (IPA salt) 53 grams ai/ha alone) is on record as 1%; in experiment [1] (setting [9]), 41%. In addition, the “BRAPP Obs (Observed control)” value in experiment [2] (Glyphosate (IPA salt) 110 grams ai/ha alone) turned out to be 15%. In addition, the “IPOHE Obs (Observed control)” value in experiment [3] (setting [9]) is given as 31%. In experiment [4] (setting [10]), the “POAAN Obs (Observed control)” value stood at 93%. In addition, the “LOLSS Obs (Observed control)” value in experiment [5] (setting [10]) was 60%. Moreover, the “MATCH Obs (Observed control)” value in experiment [6] (setting [10]) was 50%.
Consider `COc1cnc(OC)n2nc(NS(=O)(=O)c3c(OCC(F)F)cccc3C(F)(F)F)nc12` [Penoxsulam, 2-(2,2-difluoroethoxy)-N-(5,8-dimethoxy-[1,2,4]triazolo[1,5-c]pyrimidin-2-yl)-6-(trifluoromethyl)benzenesulfonamide], for which the “LEFCH Obs (Observed control)” value is 5% in experiment [1] (setting [11]); 1% in experiment [1] (setting [12]); 2% in experiment [1] (Penoxsulam 5 grams ai/ha alone); 6.3% and 6% in experiment [1] (setting [13]). For the same compound, the “ECHCG Obs (Observed control)” value stood at 63% in experiment [7] (setting [11]) and 62% in experiment [7] (setting [12]). In addition, the “BRAPP Obs (Observed control)” value is given as 9% in experiment [2] (setting [11]), 10% in experiment [2] (setting [12]) and 4% in experiment [2] (Penoxsulam 5 grams ai/ha alone). The “IPOHE Obs (Observed control)” value amounted to 16% in experiment [3] (setting [11]), 31% in experiment [3] (setting [12]), 31% in experiment [3] (Penoxsulam 5 grams ai/ha alone) and 31% in experiment [3] (setting [13]). The “CYPES Obs (Observed control)” value in experiment [8] (setting [11]) was 5.8% and 6%; in experiment [8] (setting [12]), 31.8% and 32%; in experiment [8] (Penoxsulam 5 grams ai/ha alone), 44%; in experiment [8] (setting [13]) it was 65%. In addition, the “POAAN Obs (Observed control)” value in experiment [4] (setting [14]) was 0%. Also, the “LOLSS Obs (Observed control)” value in experiment [5] (setting [14]) was determined as 0%. Moreover, in experiment [6] (setting [14]), the “MATCH Obs (Observed control)” value amounted to 0%.
